Measured values as given in US6753345B2, “7-hexanolytaxol and methods for preparing the same” (Hauser, Inc., priority 1998, dated 2004).
In brackets after ≈: the same amount, converted by molar mass. Like-named read-outs stand apart in the source and are kept apart here.

Columns and labels:
26 cell lines = assay: 26 cell line growth inhibition screen, sulforhodamine stain; format: cell-based; conditions: 48 h
NCI-H322M [1] = conditions: NCI-H322M (Non-Small Cell Lung Cancer); PG=0; 48 hour incubation
LOX-IMVI = LOX-IMVI (Melanoma); PG=0; 48 hour incubation
NCI-H322M [2] = assay: cells; conditions: Homo sapiens, 48 h, read-out: Log10 GI50 (converted)
CCRF-CEM = assay: SRB cytotoxicity screening assay (Leukemia); conditions: for Log10 TGI: PG=0
OVCAR-3 = assay: SRB cytotoxicity screening assay (Ovarian)
MOLT-4 = assay: SRB cytotoxicity screening assay (Leukemia)
RPMI-8226 = assay: SRB cytotoxicity screening assay (Leukemia); conditions: Homo sapiens, RPMI-8226, 48 h
MALME-3M = assay: SRB cytotoxicity screening assay (Melanoma)
SF-539 = assay: SRB cytotoxicity screening assay (CNS Cancer)
SNB-19 = assay: SRB cytotoxicity screening assay (CNS Cancer)
HCC-2998 = assay: SRB cytotoxicity screening assay (Colon Cancer)
HT29 = assay: SRB cytotoxicity screening assay (Colon Cancer)
KM12 = assay: SRB cytotoxicity screening assay (Colon Cancer)
SW-620 = assay: SRB cytotoxicity screening assay (Colon Cancer)
RXF-393 = assay: SRB cytotoxicity screening assay (Renal Cancer); conditions: Homo sapiens, RXF 393, 48 h
TK-10 = assay: SRB cytotoxicity screening assay (Renal Cancer)
UO-31 = assay: SRB cytotoxicity screening assay (Renal Cancer)
MCF7 = assay: SRB cytotoxicity screening assay (Breast Cancer)
MCF7/ADR-RES = assay: SRB cytotoxicity screening assay (Breast Cancer)
MDA-MB-231/ATCC = assay: SRB cytotoxicity screening assay (Breast Cancer)
MDA-MB-468 = assay: SRB cytotoxicity screening assay (Breast Cancer)
PC-3 = assay: SRB cytotoxicity screening assay (Prostate Cancer)
DU-145 = assay: SRB cytotoxicity screening assay (Prostate Cancer)
NCI-H460 = assay: SRB cytotoxicity screening assay (Non-Small Cell Lung Cancer)
[3] = read-out: Log10 GI50 (converted)
[4] = read-out: Log10 LC50 (converted)
[5] = Homo sapiens, MCF7, 48 h, read-out: Log10 GI50 (converted)
[6] = Homo sapiens, MCF7, 48 h, read-out: Log10 LC50 (converted)

SMILES: CCCCCC(=O)O[C@H]1C[C@H]2OC[C@@]2(OC(C)=O)[C@H]2[C@H](OC(=O)c3ccccc3)[C@]3(O)C[C@H](OC(=O)[C@H](O)[C@@H](NC(=O)c4ccccc4)c4ccccc4)C(C)=C([C@@H](OC(C)=O)C(=O)[C@]12C)C3(C)C [7-hexanoyltaxol]
- IC50 (26 cell lines; read-out: Mean IC50 (26 cell line Mean Growth inhibition IC50 value)): 8 ng/mL (≈ 8.4 nM)
- IC50 (26 cell lines; read-out: Min IC50 (lowest observed IC50 value in 26 cell line screen)): 1 ng/mL (≈ 1.05 nM)
- Log10 TGI (NCI-H322M [1]): −4.51 molar
- Log10 TGI (LOX-IMVI): −4.68 molar
- GI50 (NCI-H322M [2]): 0.02 µM
- Log10 TGI (CCRF-CEM; CCRF-CEM (Leukemia), 48 hour incubation): −6.1 molar
- Log10 TGI (CCRF-CEM; CCRF-CEM (Leukemia), 48 hour incubation, listed as 7-Hexanoyltaxol): <−8.00 molar
- Log10 LC50 (CCRF-CEM; CCRF-CEM (Leukemia), PG=−50, 48 hour incubation): >−4.00 molar
- GI50 (CCRF-CEM; Homo sapiens, CCRF-CEM, 48 h, read-out: Log10 GI50 (converted)): < 0.01 µM
- CC50 (CCRF-CEM; Homo sapiens, CCRF-CEM, 48 h, read-out: Log10 LC50 (converted)): > 100 µM
- IC50 (CCRF-CEM; Homo sapiens, CCRF-CEM, read-out: concentration necessary to achieve primary growth inhibition (percentage growth +50)): ~0.1 µM
- GI50 (OVCAR-3; Homo sapiens, OVCAR-3, 48 h, read-out: Log10 GI50 (converted)): < 0.01 µM
- CC50 (OVCAR-3; Homo sapiens, OVCAR-3, 48 h, read-out: Log10 LC50 (converted)): 20.9 µM
- Log10 TGI (OVCAR-3; OVCAR-3 (Ovarian), PG=0, 48 hour incubation): −7.65 molar
- GI50 (MOLT-4; Homo sapiens, MOLT-4, 48 h, read-out: Log10 GI50 (converted)): < 0.01 µM
- CC50 (MOLT-4; Homo sapiens, MOLT-4, 48 h, read-out: Log10 LC50 (converted)): > 100 µM
- Log10 TGI (MOLT-4; MOLT-4 (Leukemia), PG=0, 48 hour incubation): −4.69 molar
- GI50 (RPMI-8226; [3]): < 0.01 µM
- CC50 (RPMI-8226; [4]): > 100 µM
- GI50 (MALME-3M; Homo sapiens, Malme-3M, 48 h, read-out: Log10 GI50 (converted)): < 0.01 µM
- CC50 (MALME-3M; Homo sapiens, Malme-3M, 48 h, read-out: Log10 LC50 (converted)): 81.3 µM
- Log10 TGI (MALME-3M; MALME-3M (Melanoma), PG=0, 48 hour incubation): −4.65 molar
- GI50 (SF-539; Homo sapiens, SF-539, 48 h, read-out: Log10 GI50 (converted)): < 0.01 µM
- CC50 (SF-539; Homo sapiens, SF-539, 48 h, read-out: Log10 LC50 (converted)): 1.51 µM
- Log10 TGI (SF-539; SF-539 (CNS Cancer), PG=0, 48 hour incubation): −7.32 molar
- GI50 (SNB-19; Homo sapiens, SNB-19, 48 h, read-out: Log10 GI50 (converted)): 0.0102 µM
- CC50 (SNB-19; Homo sapiens, SNB-19, 48 h, read-out: Log10 LC50 (converted)): > 100 µM
- Log10 TGI (SNB-19; SNB-19 (CNS Cancer), PG=0, 48 hour incubation): −4.53 molar
- Log10 TGI (HCC-2998; HCC-2998 (Colon Cancer), PG=0, 48 hour incubation): −7.35 molar
- GI50 (HCC-2998; Homo sapiens, HCC 2998, 48 h, read-out: Log10 GI50 (converted)): < 0.01 µM
- CC50 (HCC-2998; Homo sapiens, HCC 2998, 48 h, read-out: Log10 LC50 (converted)): 8.32 µM
- Log10 TGI (HT29; HT29 (Colon Cancer), PG=0, 48 hour incubation): −4.95 molar
- GI50 (HT29; Homo sapiens, HT-29, 48 h, read-out: Log10 GI50 (converted)): < 0.01 µM
- CC50 (HT29; Homo sapiens, HT-29, 48 h, read-out: Log10 LC50 (converted)): 33.1 µM
- GI50 (KM12; Homo sapiens, KM12, 48 h, read-out: Log10 GI50 (converted)): < 0.01 µM
- CC50 (KM12; Homo sapiens, KM12, 48 h, read-out: Log10 LC50 (converted)): > 100 µM
- Log10 TGI (KM12; KM12 (Colon Cancer), PG=0, 48 hour incubation): −4.90 molar
- GI50 (SW-620; Homo sapiens, SW-620, 48 h, read-out: Log10 GI50 (converted)): < 0.01 µM
- CC50 (SW-620; Homo sapiens, SW-620, 48 h, read-out: Log10 LC50 (converted)): > 100 µM
- Log10 TGI (SW-620; SW-620 (Colon Cancer), PG=0, 48 hour incubation): >−4.00 molar
- GI50 (RXF-393; [3]): < 0.01 µM
- CC50 (RXF-393; [4]): 91.2 µM
- GI50 (TK-10; Homo sapiens, TK-10, 48 h, read-out: Log10 GI50 (converted)): 0.0324 µM
- CC50 (TK-10; Homo sapiens, TK-10, 48 h, read-out: Log10 LC50 (converted)): > 100 µM
- Log10 TGI (TK-10; TK-10 (Renal Cancer), PG=0, 48 hour incubation): −4.45 molar
- GI50 (UO-31; Homo sapiens, UO-31, 48 h, read-out: Log10 GI50 (converted)): 0.0646 µM
- CC50 (UO-31; Homo sapiens, UO-31, 48 h, read-out: Log10 LC50 (converted)): > 100 µM
- Log10 TGI (UO-31; UO-31 (Renal Cancer), PG=0, 48 hour incubation): >−4.00 molar
- GI50 (MCF7; [5]): < 0.01 µM
- CC50 (MCF7; [6]): > 100 µM
- Log10 TGI (MCF7; MCF7 (Breast Cancer), PG=0, 48 hour incubation): −4.73 molar
- GI50 (MCF7/ADR-RES; [5]): 1.12 µM
- CC50 (MCF7/ADR-RES; [6]): > 100 µM
- Log10 TGI (MCF7/ADR-RES; MCF7/ADR-RES (Breast Cancer), PG=0, 48 hour incubation): −4.80 molar
- GI50 (MDA-MB-231/ATCC; Homo sapiens, MDA-MB-231, 48 h, read-out: Log10 GI50 (converted)): 0.0282 µM
- CC50 (MDA-MB-231/ATCC; Homo sapiens, MDA-MB-231, 48 h, read-out: Log10 LC50 (converted)): 23.4 µM
- Log10 TGI (MDA-MB-231/ATCC; MDA-MB-231/ATCC (Breast Cancer), PG=0, 48 hour incubation): −6.13 molar
- GI50 (MDA-MB-468; Homo sapiens, MDA-MB-468, 48 h, read-out: Log10 GI50 (converted)): < 0.01 µM
- CC50 (MDA-MB-468; Homo sapiens, MDA-MB-468, 48 h, read-out: Log10 LC50 (converted)): > 100 µM
- Log10 TGI (MDA-MB-468; MDA-MB-468 (Breast Cancer), PG=0, 48 hour incubation): −6.26 molar
- GI50 (PC-3; Homo sapiens, PC-3, 48 h, read-out: Log10 GI50 (converted)): < 0.01 µM
- CC50 (PC-3; Homo sapiens, PC-3, 48 h, read-out: Log10 LC50 (converted)): > 100 µM
- Log10 TGI (PC-3; PC-3 (Prostate Cancer), PG=0, 48 hour incubation): −5.48 molar
- Log10 TGI (DU-145; DU-145 (Prostate Cancer), PG=0, 48 hour incubation): −7.00 molar
- GI50 (DU-145; Homo sapiens, DU-145, 48 h, read-out: Log10 GI50 (converted)): < 0.01 µM
- CC50 (DU-145; Homo sapiens, DU-145, 48 h, read-out: Log10 LC50 (converted)): 37.2 µM
- GI50 (NCI-H460; Homo sapiens, NCI-H460, 48 h, read-out: Log10 GI50 (converted)): < 0.01 µM
- CC50 (NCI-H460; Homo sapiens, NCI-H460, 48 h, read-out: Log10 LC50 (converted)): > 100 µM
- Log10 TGI (NCI-H460; NCI-H460 (Non-Small Cell Lung Cancer), PG=0, 48 hour incubation): −4.75 molar
